Test results reported in PubChem BioAssay (NCI).
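Each compound was tested at five concentrations against cells in 96-well plates for 48 hours. At the GI50, growth is halved. TGI: total growth inhibition.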

Experiments:
Assay in all cases: growth of human tumour cells (NCI), 48 h
[1] = test system: DU-145 prostate
[2] = test system: M14 melanoma
[3] = test system: NCI-H460 lung
[4] = test system: MDA-MB-231 breast
[5] = test system: SW-620 colon
[6] = test system: LOX IMVI melanoma

| Compound | GI50 [1] [µM] | TGI [1] [µM] | GI50 [2] [µM] | TGI [2] [µM] | GI50 [3] [µM] | TGI [3] [µM] | GI50 [4] [µM] | TGI [4] [µM] | GI50 [5] [µM] | TGI [5] [µM] | GI50 [6] [µM] | TGI [6] [µM] |
| --- | --- | --- | --- | --- | --- | --- | --- | --- | --- | --- | --- | --- |
| CN1CCN(CCc2cccc(C(=O)c3cnn(-c4ccc(F)cc4)c3N)c2)CC1 | > 25 | > 25 | > 25 | > 25 | > 25 | > 25 | > 25 | > 25 | > 25 | > 25 | > 25 | > 25 |
| C[C@H](Nc1ncnc2nc[nH]c12)c1cc2cccc(Cl)c2c(=O)n1-c1ccccc1 | 26.2 | > 100 | 21.1 | > 100 | 12.6 | > 100 | 46.4 | > 100 | 36.5 | > 100 | 19.8 | > 100 |
| COc1ccc(N2C(C)=C(C#N)C34C(=O)N(c5ccccc5)C(=O)C3=C(O)C=CC24O)cc1 (stereo not given) | 10.5 | 26.8 | 13.6 | 38.6 | 14.6 | 61.4 | 14.5 | 29.8 | 10.3 | 24.6 | 5.24 | 18.8 |
| CCN(CC)c1ccc(C(=C2C=CC(=[N+](CC)Cc3cccc(S(=O)(=O)O)c3)C=C2)c2ccc(N(CC)Cc3cccc(S(=O)(=O)O)c3)cc2)cc1 | 4.74 | > 100 | 4.93 | 39.2 | 3.93 | 39.1 | 9.61 | > 92.6 | 4.45 | > 100 | 4.84 | > 100 |
| CN(CCCN)CCCNc1nc2ccccc2c2[nH]c3ccccc3c12 | 0.3 | 10.3 | 0.696 | 1.93 | 0.304 | 1.17 | 0.231 | 0.774 | 0.315 | 1.64 | – | – |
| CC(C)(C)C[C@H]1NC(C(=O)NCC[C@H](O)CO)[C@H](c2cccc(Cl)c2)[C@@]12C(=O)Nc1cc(Cl)c(F)cc12 (stereo not given in full) | 16.1 | 30.6 | 16.6 | 33.7 | 2.45 | 14.6 | 14.9 | 32.4 | 16.6 | 34.1 | 3.12 | 19.1 |
| C=CCc1c2c(c(OC)c3ccoc13)C(=O)/C(=C/c1ccccc1OC)O2 | 3.19 | > 100 | 8.19 | > 100 | 3.46 | > 100 | 4.59 | > 100 | 4.24 | > 100 | 3.13 | 27.1 |
| ClCCn1c(CCl)nc2ccc(Cl)cc21 | 1.75 | 3.22 | 0.466 | 1.64 | 0.955 | 4.59 | 1.52 | 3.38 | 0.289 | 1.11 | 0.156 | 0.317 |
| COC(=O)[C@]12CC[C@@H](C)[C@H](C)[C@@H]1C1=CC[C@@H]3[C@@]4(C)C[C@@H](OC(C)=O)[C@H](O)[C@@](C)(COC(C)=O)[C@@H]4[C@H](O)C[C@@]3(C)[C@]1(C)CC2 | 3.48 | 11.9 | 1.96 | 5.09 | 2.05 | 4.02 | 1.87 | 4.81 | 2.75 | 8.76 | 1.64 | 3.1 |
| COC1(C(=O)N[C@@H](C)c2ccc(-n3cc(F)cn3)nc2)CCC(c2nc(C)cc(Nc3cc(C)[nH]n3)n2)CC1 (stereo not given in full) | 1.8 | 4.63 | 3.03 | 17.7 | 5.2 | 18.5 | 1.14 | 4.69 | 2.32 | 24.2 | 0.714 | 2.54 |
| CCCC[C@H](NC(=O)[C@H]1CCCN1C)C(=O)N(C)[C@H](C[C@@H](OC(C)=O)c1nc(C(=O)N[C@@H](Cc2ccccc2)C[C@H](C)C(=O)OCC)cs1)C(C)C | 0.0137 | > 33.3 | 0.0163 | 3.77 | 0.0105 | 4.04 | 0.018 | 0.844 | 0.0106 | > 33.3 | 0.0173 | 9.99 |
| COc1c2c(c3c(c1CCC(=O)O)OC(C)(C)C=C3)OC(C)(C)C=C2 | – | > 100 | – | > 100 | – | – | – | > 100 | – | > 100 | – | > 100 |
| Nc1c(C(=O)Nc2cccc([N+](=O)[O-])c2)sc2nc3c(cc12)C(O)CCC3 (stereo not given) | 20.5 | > 100 | 3.39 | > 100 | 4.93 | > 100 | 21.3 | > 100 | 3.48 | > 100 | 7.61 | > 100 |
| C1CCSCCCCSCCCCSCCCCSC1 | – | > 100 | – | > 100 | – | > 100 | – | > 100 | – | > 100 | – | > 100 |
| CN(C)/C=C/c1nnc([N+](=O)[O-])s1 | – | 30.8 | – | 29.1 | – | 33.1 | – | 85.9 | – | 33.1 | – | 17.4 |
| COc1ccc2nc3cc([N+](=O)[O-])ccc3c(NCCCCCN(C)C)c2c1 | 0.286 | 11.3 | 0.216 | 0.522 | 0.0815 | 1.03 | 0.249 | 1.93 | 0.272 | 3 | 0.279 | 1.1 |
| COC(=O)[C@H](Cc1cn(C)cn1)NC(=O)[C@H](Cc1c[nH]c2ccccc12)NC(=O)Nc1cc(C(F)(F)F)cc(C(F)(F)F)c1 | > 10 | > 10 | > 10 | > 10 | > 10 | > 10 | > 10 | > 10 | > 10 | > 10 | > 10 | > 10 |
| COc1cc(Cl)cc(-c2nn(C(=O)NCCN3CCOCC3)cc2-c2ccncc2)c1 | 8.46 | 57.6 | 5.42 | 39.5 | 3.81 | > 100 | 13 | > 100 | 4.28 | 32.7 | 5.14 | 69.9 |
| Cc1ccc(S(=O)(=O)N2CCSCCSCCSCCSCC2)cc1 | – | > 100 | – | > 100 | – | > 100 | – | 56.6 | – | > 100 | – | > 100 |
| O=C1c2ccccc2-c2c1c1ccccc1c(=O)n2CCCNCCCNCCCn1c2c(c3ccccc3c1=O)C(=O)c1ccccc1-2 | 0.0295 | 0.181 | 0.333 | 1.29 | < 0.0169 | 0.266 | < 0.01 | 0.112 | < 0.01 | 0.15 | 0.0215 | 0.175 |
| O=C(Cn1ccc(=O)[nH]c1=O)Nc1ccc(C(=O)O)c(O)c1 | – | > 100 | – | > 100 | – | > 100 | – | > 100 | – | > 100 | – | > 100 |
| Cc1ccc(/C=C2\CN(C(=O)OC(C)(C)C)C/C(=C\c3ccc(C)cc3)C2=O)cc1 | 0.158 | > 100 | 0.0608 | > 100 | 0.124 | 10.7 | 1.22 | > 54.3 | 0.437 | > 100 | 0.0743 | > 100 |
| COc1ccc(C(=O)/C=C/c2ccc(/C=C/c3cc(OC)c(OC)c(OC)c3)cc2)cc1 | 10.2 | > 100 | 9.61 | > 100 | 8.65 | > 100 | 10.2 | > 100 | 4.5 | > 100 | 3.76 | 60.9 |
| COc1ccc(-c2ccc(/C=N/n3c(COc4ccc(Cl)cc4Cl)n[nH]c3=S)o2)c([N+](=O)[O-])c1 | 38.3 | > 100 | 16 | 31.6 | 18 | 46.3 | – | – | 30.7 | 97.6 | – | – |
| O=C(CC(=O)CC(O)(C(F)(F)F)C(F)(F)F)CC(O)(C(F)(F)F)C(F)(F)F | – | > 10 | – | > 10 | – | > 10 | – | > 10 | – | > 10 | – | > 10 |
| CN(C)S(=O)(=O)c1ccc(NC(=O)COC(=O)c2ccc(S(=O)(=O)N3CCCCC3)cc2)cc1 | > 100 | > 100 | – | – | > 100 | > 100 | > 100 | > 100 | > 100 | > 100 | > 100 | > 100 |
| Nc1cc2cccc[n+]2c2cc(Cl)ccc12 | 30.7 | – | 19.3 | 47.4 | 18 | 49.6 | 17.7 | 51 | 26.2 | – | – | – |
| COC(=O)[C@@H](C)C[C@H](Cc1ccccc1)NC(=O)c1nc([C@@H](C[C@H](C(C)C)N(C)C(=O)[C@@H](NC(=O)[C@H]2CCCCN2C)C(C)C)OC(C)=O)sc1C | < 0.00167 | > 16.7 | – | – | < 0.00167 | > 16.7 | < 0.00167 | 0.441 | < 0.00167 | > 16.7 | < 0.00167 | > 16.7 |
